Measured values: publication PMC11705763, “Tumor-associated antigen prediction using a single-sample gene expression state inference algorithm” (Cell Reports Methods, 2024)

Assays:
[1] = target: HLA-A02:01 (Homo sapiens, UniProt P04439, D140Y/D185E/D98H/E176V/E277Q/G131W/G231S/I119V/I121R/I166T/I218V/L300P/L318F/N151K/N90K/P208A/P217A/Q86G/Q94H/R138H/R169H/T345S); experiment: Peptide-MHC tetramer exchange assay (competitive peptide binding, QuickSwitch Quant HLA-A02:01 tetramer); conditions: percentage of replacement of the exchangeable peptide by the test peptide
[2] = test system: CD8+ T cell cultures / PBMCs from healthy donors; experiment: IFN-gamma ELISpot assay; type: cell-based, human; design: Donor1_value / Donor3_value / Donor4_value: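 Spot-forming units per 100000 cells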; conditions: IFN-gamma ELISpot result; for Donor1_value: healthy donor 1; for Donor2_value: healthy donor 2; for Donor3_value: healthy donor 3; for Donor4_value: healthy donor 4;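 for Donor2 value: Spot-forming units per 100000 cells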
Excerpt: We experimentally assessed the binding affinity of the 38 peptides through a competitive peptide binding assay (STAR Methods). […] Subsequently, we investigated the immunogenicity of these peptides using an interferon (IFN)-gamma ELISpot assay (STAR Methods). […] These peptides represent promising candidates for further investigation as potential immunotherapy targets. Peripheral blood mononuclear cells (PBMCs) from healthy donors were isolated at Zhongshan Hospital, Fudan University using Lymphoprep (07851, Stemcell) and cultured with ImmunoCult-XF T cell Expansion Medium (10981, Stemcell) supplemented with human recombinant IL-2 (78036, Stemcell). ImmunoCult Human CD3/CD28 T cell Activator (10971, Stemcell) was added to the cell suspension, which was then incubated for 3 days. Subsequent expansion of the cell suspension was carried out every two days as per manufacturer's instructions. The entire process was approved by the Institutional Review Board of Zhongshan Hospital, Fudan University (B2024-412). ELISPOT plates (2110003, […]) were pretreated with PBS before dispensing cell suspensions (nearly 1×10^5 cells) with synthesized peptide (10 μg/mL) into each well. After incubation at 37°C in a CO2 incubator for 20 h, plates were washed and incubated with anti-human IFN-γ followed by Streptavidin-HRP. Staining of Streptavidin-HRP was performed using AEC solution, and the reaction was stopped by rinsing with cold tap water. ELISPOT plates were scanned and counted using an ImmunoSpot plate reader and associated software from Cellular Technologies, Ltd.

Sequence | Q1_Replacement_Percentage [1] [%] | Donor1_value [2] | Donor2_value [2] | Donor3_value [2] | Donor4_value [2]
AMLKNTVPI | 89.9 | 0 | 0 | 18 | 0
FLAKLNNTV | 88.1 | 2 | 56 | 18 | 0
FLLLVDAAV | 83.5 | 571 | 34 | 0 | 12
FLLLVDAAVQ | 29.3 | 0 | 31 | 16 | 0
FLNEACLFEI | 92 | 606 | 0 | 7 | 10
FLRFANYCRI | 30 | 0 | 8 | 8 | 0
FLSTLTTFI | 89.1 | 0 | 41 | 15 | 0
FLTSGEDAV | 98.3 | 494 | 21 | 0 | 0
FLWGPRAHSEV | 90.4 | 558 | 0 | 10 | 18
FLYEVFAQL | 92.7 | 654 | 7 | 4 | 0
GLAEYLFDKLTL | 89.8 | 584 | 0 | 9 | 0
GLLMPLLGV | 91.1 | 521 | 32 | 1 | 11
GLLMPLLGVI | 91.4 | 631 | 10 | 3 | 0
GLLMPLLGVIFL | 78.9 | 4 | 33 | 8 | 0
ILFGISLREV | 96.2 | 0 | 24 | 20 | 8
KLLMPLLGV | 97.9 | 384 | 0 | 0 | 13
KMKVLEFLAKV | 42.8 | 0 | 2 | 18 | 0
KVADLVGFLL | 84.3 | 570 | 0 | 2 | 0
KVLEFLAKL | 88.2 | 545 | 58 | 12 | 0

Sequence | Q1_Replacement_Percentage [1] [%] | Donor1_value [2] | Donor2_value [2] | Donor3_value [2] | Donor4_value [2]
KVLEYVIKV | 80.8 | 0 | 23 | 19 | 0
LLASYNDDDIYL | 98.2 | 426 | 0 | 3 | 8
LLFGLALIEV | – | 28 | 42 | 7 | 0
LLMPLLGVI | 96.3 | 627 | 0 | 11 | 48
LLQISNWFI | 32.7 | 30 | 0 | 30 | 0
LQILQDGQFLV | 81.9 | 0 | 0 | 32 | 0
LVLGTLEEV | 85.1 | 666 | 17 | 15 | 11
QILQDGQFLV | 94 | 451 | 37 | 0 | 17
RKLLMPLLGV | 22.9 | 0 | 0 | 16 | 0
RLELVFGL | 23.4 | 0 | 0 | 8 | 0
SLLDLYQLA | 91.5 | 0 | 1 | 0 | 0
VIWDVLSGI | 95.5 | 678 | 0 | 0 | 1
VLLPASLFI | 94.8 | 634 | 26 | 0 | 0
YIYDILLPV | 88.9 | 17 | 54 | 19 | 0
YLHEQVKTI | 83.5 | 0 | 59 | 24 | 9
YMLWFLLRHV | 32.4 | 0 | 0 | 29 | 0
YRLADHVGCV | 56.3 | 0 | 30 | 9 | 0
YTLDEKVAEL | 91.1 | 640 | 29 | 2 | 0
YVKVLEYVIKV | 14.7 | 0 | 56 | 17 | 0
